# In patent US20210330611A1, “THERAPY FOR NEUROLOGICAL DISEASES/DISORDERS” (priority 2020, published 2021):
# Read-outs that look alike come from different tables or passages of the source.
# Assays:
# [1] = system: fibrin-induced microglia activation; assay: Image-based assay of fibrin-induced microglia activation (HTS and dose response); assay type: cell-based, rat; conditions: for IC50 / inhibition at 10 µM: Rattus norvegicus, Microglia; for inhibition at 10 µM: primary microglia HTS, fibrin stimulation, increased cell size (>800 μm^2) as marker of activation, read-out: Fibrin % inhibition
# [2] = system: LPS-induced microglia activation; assay: Image-based assay of LPS-induced microglia activation (HTS and dose response); assay type: cell-based, rat; conditions: Rattus norvegicus, Microglia; for inhibition at 10 µM: primary microglia HTS, LPS stimulation, increased cell size (>800 μm^2) as marker of activation, read-out: LPS % inhibition
# [3] = system: fibrin- and LPS-induced microglia activation; assay: cells; assay type: cell-based, rat; conditions: for inhibition at 10 µM: Rattus norvegicus, Microglia
# [4] = system: primary rat microglia; conditions: rat
# [5] = system: primary rat microglia; conditions: rat; remark: listed apart in the source
# [6] = in vitro; conditions: rat, Cell Toxicity IC50 (uM) [cFib assay]
# [7] = in vitro; conditions: rat
# [8] = system: primary rat microglia; assay: Cell toxicity (dead cells, size <150 μm2) in LPS assay; conditions: read-out: Cell Toxicity IC50 (uM) [LPS assay]; LPS assay
# [9] = 48 h, Table 1, dose response 0.001-20 μM, triplicates, primary rat microglia, 48 h, read-out: Fibrin IC50
# [10] = Table 3, read-out: Fibrin IC50 (uM) (Suppl. Table 7)
# [11] = dose response, fibrin-induced microglia activation, read-out: Fibrin IC50
# [12] = fibrin-induced microglia activation, dose response, read-out: Fibrin IC50 (uM) (Suppl. Table 7)
# [13] = 48 h, Table 1, dose response 0.001-20 μM, triplicates, primary rat microglia, 48 h, read-out: LPS IC50
# [14] = LPS-induced microglia activation, dose response, read-out: LPS IC50 (uM) (Suppl. Table 7)
# [15] = Table 3, read-out: LPS IC50 (uM) (Suppl. Table 7)
# [16] = dose response, LPS-induced microglia activation, read-out: LPS IC50
# [17] = HTS of 1907 compounds, quadrant by fibrin and LPS inhibition
# [18] = Table 3, read-out: Cherry-picked Hit (Suppl. Table 7)
# [19] = HTS hit classification, read-out: Hit
# [20] = quadrant by fibrin and LPS inhibition in HTS of 1907 compounds
# 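Throughout, for Fibrin % cell toxicity: share of dead cells sized under 150 µm2 at 10 µM in fibrin-stimulated microglia HTS.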
Compound,Fibrin Selectivity [1],"IC50 [1, 9] [µM]","IC50 [1, 10] [µM]","IC50 [1, 11] [µM]","IC50 [1, 12] [µM]","IC50 [2, 13] [µM]",inhibition at 10 µM ([2]; 48 h) [%],"IC50 [2, 14] [µM]","IC50 [2, 15] [µM]","IC50 [2, 16] [µM]","Quadrant (FIG. 5b) [3, 17]","inhibition at 10 µM [3, 18] [%]","inhibition at 10 µM [3, 19] [%]","Quadrant (FIG. 5b) ([3]; Table 1, screen at 10 μM)","Quadrant (FIG. 5b) ([3]; Table 3, screen at 10 μM)",Fibrin % cell toxicity [4] [%],IC50 ([6]; Table 3) [µM],IC50 ([6]; cFib assay) [µM],IC50 [7] [µM],IC50 [8] [µM],further results
"O=P(O)(O)C(O)(Cn1ccnc1)P(=O)(O)O [Zoledronic acid, reference compound]",4,2,2,2,2,8,49,8,8,8,Q3,> 50,> 50,Q3,Q3,2,> 20,> 20,> 20,> 20,"Fibrin Selectivity (LOG10) [1]: 0.55; inhibition at 10 µM [1]: 83%; Quadrant (FIG. 5b) [3, 20]: Q3; LPS % cell toxicity [5]: 1%"
"O=c1[nH]cc(F)c(=O)[nH]1 [Fluorouracil, reference compound]",3,7,7,7,7,> 20,40,> 20,> 20,> 20,Q3,> 50,> 50,Q3,Q3,1,> 20,> 20,> 20,> 20,"Fibrin Selectivity (LOG10) [1]: 0.44; inhibition at 10 µM [1]: 56%; Quadrant (FIG. 5b) [3, 20]: Q3; LPS % cell toxicity [5]: 1%"
"C[C@H]1C[C@@H]2[C@H]([C@@H](O)C[C@@]3(C)[C@H]2CC[C@]3(O)C(=O)CO)[C@@]2(C)C=CC(=O)C=C12 [Methylprednisolone, reference compound]",,< 0.001,< 0.001,< 0.001,< 0.001,0.02,86,0.02,0.02,0.02,Q2,> 50,> 50,Q2,Q2,3,> 20,> 20,> 20,> 20,"IC50 ([1]; Table 7, read-out: fib_IC50): 0.003 µM; inhibition at 10 µM [1]: 110%; IC50 ([2]; Table 7, read-out: LPS_IC50): 0.002 µM; Quadrant (FIG. 5b) ([3]; Table 2, screen at 10 μM): Q2; Quadrant (FIG. 5b) [3, 20]: Q2; LPS % cell toxicity [5]: 2%"
"CC(=O)O[C@]1(C(C)=O)CC[C@H]2[C@@H]3C=C(C)C4=CC(=O)CC[C@]4(C)[C@H]3CC[C@@]21C [Megestrol acetate, reference compound]",4,5,5,5,5,> 20,24,> 20,> 20,> 20,Q3,> 50,> 50,Q3,Q3,1,> 20,> 20,> 20,> 20,Fibrin Selectivity (LOG10) [1]: 0.63
